Source: US20250331522A1, “CHLORINE DIOXIDE […] TO PREVENT BLACK ROT DISEASE AND PROMOTE WOUND HEALING IN SWEETPOTATO” (Zhejiang A&F University, priority 2024, published 2025)

Tests used:
[1] = test system: sweetpotato wounds inoculated with C. fimbriata; experiment: Promotion of wound-healing ability of sweetpotatoes (disease index after re-inoculation with C. fimbriata); assay type: in vivo, Xinxiang sweetpotatoes; Ceratocystis fimbriata; details: fumigation 30 h; spores applied on day 0, 1, 3, 5, 7 of healing; incidence counted after 7 days
Method: The effects of the combined reagents prepared by the method described in Embodiments 1-3 on promoting the wound-healing ability of sweetpotatoes are investigated, the method is as follows: […]
After the treatment, the fresh-keeping box is first ventilated, and the sweetpotatoes are transferred into a normal storage incubator (25° C., humidity 85%) for storage. During the storage of sweetpotatoes, 20 μL of fungus solution with a spore concentration of 10^6 spore/mL prepared in Embodiment 4 is evenly applied to the surface of the wounds on the 0th, 1st, 3rd, 5th and 7th day, respectively, the incidence of the disease after 7 days is counted and the disease index is calculated. […] The sweetpotatoes with perforation damage but without ClO2 treatment are used as the control group, and the disease index is calculated by the following formula: […]

[2] = test system: C. fimbriata in sweetpotato; experiment: Inhibitory effect on the growth of C. fimbriata in inoculated sweetpotato (lesion diameter and depth); assay type: in vivo, Ceratocystis fimbriata; Xinxiang sweetpotatoes; details: fumigation 30 h, storage 15 days at 25° C., humidity 85%
Method: (§1) C. fimbriata preserved at −80° C. is thawed and resuscitated at 4° C., 200 μL C. fimbriata is taken into 15 mL PDA medium plates in the ultra-clean table and cultured at 28° C. for 7 d. After 7 d, 5 colonies of C. fimbriata are picked on the medium and inoculated into the expanding culture medium with an inoculation needle for further culture for 7 d. After 7 days, some of the expanding culture plates are used to prepare fungus pieces, and some plates are used to prepare spore suspension. Sterile water is added into the culture plate, the mycelium is scraped and filtered through four layers of sterile gauze to remove the mycelium and medium impurities, and the spore suspension of C. fimbriata is obtained. The spore concentration is calculated by the blood cell counting plate, and adjusted to 10^6 spore/mL.
The inhibitory effect of the combined reagents prepared by the method described in Embodiments 1-3 on the growth of C. fimbriata in sweetpotato is investigated, the method is as follows: […]

[3] = test system: C. fimbriata; experiment: Inhibition of C. fimbriata in vitro (colony diameter on PDA plate after ClO2 fumigation); assay type: cell-based, Ceratocystis fimbriata; details: ClO2 fumigation 4 h, culture 15 d
Method: as §1, with “Sterile water is added into the culture plate, the mycelium is scraped and filtered through four layers of sterile gauze to remove the mycelium and medium impurities, and the spore suspension of C. fimbriata is obtained.” left out, “spore/mL. […]” for “spore/mL.”
The expanding culture plate of C. fimbriata cultured in Embodiment 4 is selected, and the fungus piece is prepared by using a 10 mm sterile puncher, the fungus piece is reversely connected to the center of the PDA medium, and the PDA plate is placed in a 10 L fresh-keeping box, and the combined reagents prepared by the method described in Embodiments 1-3 are added, the plate is fumigated with ClO2 for 4 h, the culture plate is moved into a constant temperature incubator at 27° C. for 15 d after the treatment. The colony diameter of the culture plate is measured by the cross method every 3 days, the measurement is repeated three times, and the plate without ClO2 fumigation is used as the blank control.

[O][Cl+][O-] [ClO2, chlorine dioxide]
resistance to infection / wound healing of sweetpotatoes (disease index, in words) [1]: after 5 days of healing can completely resist the infection of pathogenic fungus
diameters and depths of the lesion of inoculated sweetpotatoes (in words) [2]: decreases significantly with the increase of treatment concentration
growth of C. fimbriata (in words) [3]: directly inhibit the growth of C. fimbriata
